Measured values taken from US20250282764A1, “IMIDAZOLE HETEROCYCLE BASED COMPOUNDS AND METHODS OF TREATING CANCER” (King Abdulaziz University, priority 2024, published 2025).
Where two headings read alike, the source gives them in different places.

Assays:
KG1a = assay: CellTiter-Blue cell viability assay, KG1a; type: cell-based, human; conditions: 48 h, mean of triplicates
Method: (§1) Cell culture of leukemia cell lines model was performed as follows. HL60, K562, and NB4 cell lines were purchased from CLS Cell Line Service GmbH (Eppelheim, Germany). MV4-11 cell line was purchased from American Type Culture Collection (ATCC; Virginia, USA). KG1α also referred to as KG1a was a gift from Prof. Ghulam Mufti (King College London, UK). Kasumi-1 cell line was purchased from Nawah Scientific (Cairo, Egypt). All cell lines were cultured in Roswell Park Memorial Institute-1640 (RPMI-1640) culture medium supplemented with 10% fetal bovine serum (FBS) (Thermo Fisher Scientific) and 0.1% ciprofloxacin (10 μg/ml; Cipla Limited; Mumbai, India). Cells were maintained in a humidified incubator at 37° C. with 5% CO2.
(§2) Cell viability was determined using the CellTiter-Blue® Cell Viability Assay kit (Promega, Madison, WI, USA). Approximately […] were plated in 96 well plate in the presence of increasing drug concentration in triplicate and incubated for 48 h at 37° C. in a humidified incubator. After the incubation period, 20 μL of the cell titer blue reagent was added to each well and the plate was incubated for additional 2 h for the development of florescence. Florescence was measured at 540Ex/590Em on SpectraMax i3 Multi-Mode Microplate Reader (Molecular Devices, LLC; San Jose, CA, USA). […]

DLD1 = assay: CellTiter-Blue cell viability assay, DLD1; type: cell-based, human; conditions: 48 h, 50% cell viability vs untreated, mean of triplicates
Method: (§3) Cell culture of colorectal carcinoma cell lines was performed as follows. DLD-1, HCT116, and HT-29 cells were purchased from CLS Cell Line Service GmbH (Eppelheim, Germany) and cultured in Dulbecco's Modified Eagle Medium (DMEM) high glucose, GlutaMAX™ Supplement, pyruvate (Thermo Fisher Scientific, Paisley, UK) supplemented with 10% fetal bovine serum (FBS; Thermo Fisher Scientific), 200 U/mL penicillin, and 200 μg/ml streptomycin (Thermo Fisher Scientific), at 37° C. with 5% CO2 in a humidified incubator.
(§4) The CellTiter®-Blue Cell Viability assay was acquired from Promega Corporation (Madison, WI, USA). Cell viability assay was performed as follows: DLD-1 (4×10^3/well), HCT116 (4×10^3/well), and HT-29 (7×10^3/well) were incubated with a concentration gradient of compound (Id) ranging from 0.01 to 20 μM, in 96-well plates for 48 h at 37° C. Subsequently, 20 μl CellTiter®-Blue Cell Viability reagent was added to each well and incubated for an additional 2 h for the development of fluorescence. The fluorescence emission was measured at 590 nm using a SpectraMax® i3× Multi-Mode microplate reader (Molecular Devices, LLC, San Jose, CA, USA) and plotted against drug concentrations to determine the mean inhibitory concentration of compound (Id) producing 50% decrease in cell viability (IC50). Experiments were performed in triplicates.

[1] = Binding to mouse plasma proteins (equilibrium dialysis); type: in vitro ADME
Method: Binding to mouse plasma proteins was determined as follows. The equilibrium dialysis method for determining plasma protein binding was performed using 96-well dialyzer plates with molecular weight cutoff of 5K (Harvard Apparatus, Holliston, MA) and a dual-plate rotator set to maximum speed (Harvard Apparatus, Holliston, MA) located in a 37° C. incubator with a 10% CO2-atmospheric environment. Assays were run in triplicate. The test compound was added to CD-1 mouse plasma (Innovative Research, Novi, MI, sodium heparin added as anticoagulant; pH adjusted to 7.4 with 2N HCl on day of use) in DMSO (final DMSO concentration 0.4%) to give 10 μM final concentration. Drug/plasma mixture and buffer (Dulbecco's phosphate-buffered saline 1× without calcium and magnesium, Mediatech, Inc., Herndon, VA) were placed in their respective sides, wells were capped, and the plate was placed in the rotator and allowed to dialyze for 22 h. […] Concentrations of analyte from each side of the dialysis plate were determined by LC/MS/MS on a Waters Xevo TQ instrument as described above using positive electrospray ionization. […] The fraction unbound was calculated by dividing the drug concentration in the buffer side of the dialysis plate by the drug concentration in the plasma side.

HL60 = assay: CellTiter-Blue cell viability assay, HL60; type: cell-based, human; conditions: 48 h, mean of triplicates
Method: as §1, §2

HT29 = assay: CellTiter-Blue cell viability assay, HT29; type: cell-based, human; conditions: 50% cell viability vs untreated, mean of triplicates
Method: as §3, §4

MV4-11 = assay: CellTiter-Blue cell viability assay, MV4-11; type: cell-based, human; conditions: 48 h, mean of triplicates
Method: as §1, §2

NB4 = assay: CellTiter-Blue cell viability assay, NB4; type: cell-based, human; conditions: 48 h, mean of triplicates
Method: as §1, §2

[2] = Stability in human liver microsomes; type: in vitro ADME
Method: The clearance of compound (Id) in mouse or human liver microsomes was determined at 37° C. Both mouse and human liver microsomes were obtained from Merck KGaA, (Darmstadt, Germany), Cat. No. M9441 (Mouse liver microsomes) and M0317 (Human liver microsomes). Assays were conducted in triplicate in 96-deep well polypropylene plates. […] At five time points, reaction mixture aliquots were transferred to 96-shallow well stop plates on ice containing acetonitrile with 0.1 μM propafenone. […] Standard curves for test compounds were generated using 5 concentrations in triplicate that were processed as above but with zero incubation time. Stop plates were centrifuged at 2000 g for 10 min and then supernatant aliquots were transferred to a Waters Aquity® UPLC 700 μL 96-well sample plate with cap mat (Waters, Milford, MA). The amount of compound remaining in the supernatant was quantified by LC/MS/MS using a Waters Xevo TQ MS (electrospray positive mode) coupled to a Waters Aquity® UPLC (BEH column, C18). Propafenone was used as the internal standard. GraphPad® Prism v 5.04 was used for nonlinear fitting of time course data to generate t1/2 values.

[3] = human liver microsomes, in presence of NADPH, 37° C.

Compound	IC50 (KG1a; Homo sapiens, KG-1a)	IC50 (DLD1; Homo sapiens, DLD-1)	fraction unbound at 22 h, 10 μM ([1]; CD-1, mouse, plasma, pH 7.4, equilibrium dialysis 22 h, read-out: Mouse PPB (% free))	IC50 (HL60; Homo sapiens, HL-60)	IC50 (HT29; 48 h)	IC50 (HT29; Homo sapiens, HT-29, 48 h)	IC50 (MV4-11; Homo sapiens, MV4-11)	IC50 (NB4; Homo sapiens, NB-4)	Stability HLM t1/2 [2, 3]	half-life ([2]; human, liver microsomes, human liver microsomes, in presence of NADPH, 37° C., read-out: Stability HLM t1/2)	Mic. Ctrl. Human % @60 min ([2]; without NADPH, percent remaining after 60 min incubation)	Mic. Ctrl. Human % @60 min ([2]; without NADPH, percent remaining after 60 min incubation, listed as compound (Id))	IC50 (KG1a)	IC50 (DLD1)	Mouse PPB (% free) ([1]; 10 μM, equilibrium dialysis 22 h)	IC50 (HL60)	IC50 (MV4-11)	IC50 (NB4)	Mic. Ctrl. Human % @60 min [2]
CC1=N/C(=C\c2ccc(C)o2)C(=O)N1c1ccc(CC(=O)NCc2ccccc2)cc1 [Compound (Id), 2-Methyl-4-(5-methyl-2-furyl)methylene-1-[4-(benzylaminocarbonylmethyl)phenyl]-5-oxo-1H-imidazole]	488 nM	1350 nM	0.032	443 nM	1340 nM	1340 nM	254 nM	189 nM	30.3 min	30 min	118%	did not change	–	–	–	–	–	–	–
COc1ccc(/C=C2\N=C(C)N(c3ccc(CC(=O)NCc4ccccc4)cc3)C2=O)cc1 [KIM-161, reference compound]	–	–	–	–	1840 nM	–	–	–	22.9 min	–	–	–	283 nM	1730 nM	5%	238 nM	361 nM	148 nM	113%
